# Values joined by “and” are separate entries in the source; they are usually repeats but may differ in a detail not shown here. Equal values may be shown once. Read-outs that look alike come from different tables or passages of the source. Marks after values point to notes of the source that are not given here.
# Legend:
# Mouse pharmacokinetics = format: in vivo; conditions: for Vd: in vivo, read-out: Vdss; for Vd / Cl: IV 2 mg/kg; for bioavailability: PO 10 mg/kg vs IV 2 mg/kg
# Source text: All animal experiments were approved by the Institutional Animal Care and Use Committee (IACUC) of Bristol Myers Squibb.
# [1] = system: L. sigmodontis adult worms; conditions: for adult worm burden reduction: figure prints reduction as negative value; for reduction of adult worm burden: mice, 30 mg/kg BID
# O. volvulus L5 larvae [2] = test: O. volvulus L5 ex vivo assay, MTT viability; format: cell-based, Onchocerca volvulus; conditions: Day 21, 1 uM
# Experimental: This culturing medium was then added in transwell 24-well plates containing human umbilical vein endothelial cell (HUVEC) monolayers, containing the L4 larvae. A week prior to conducting an assay, the cultured O. volvulus larvae (L5) were transferred into a Petri dish containing fresh medium. […] After the transfer of O. volvulus L5 to the plates, the test compounds were dissolved in DMSO, added to each well, and incubated at 37 °C in a 5% CO2. The media containing freshly prepared compounds were partially replaced every 2–3 days for 14 days. After 14 days, the media were completely replaced. The untreated control contains the media described above with a final concentration of 0.05% DMSO. […] The motility was measured visually by two operators. […] Following washout and incubation during 1 h in PBS under 5% CO2, worms were observed under an inverted microscope. Worms were considered dead if no staining or less than 50% within the worm was observed. Otherwise, if worms stained blue or more than 50% stained, then they are considered alive. All test treatments were performed in duplicates. Significance was determined using a t test.
# O. volvulus L5 larvae [3] = test: O. volvulus L5 ex vivo assay, motility; format: cell-based; conditions: Onchocerca volvulus, 504 h, read-out: O. volvulus L5 % inhibition of motility
# Experimental: O. volvulus larvae (L4) were prepared using cryopreserved O. volvulus L3 cultured in a medium containing 1:1 NCTC-109 and IMDM (Iscove’s modified Dulbecco’s medium) supplemented with Glutamax (1×) and 2× Antibiotic-Antimycotic (Life Technologies). This culturing medium was then added in transwell 24-well plates containing human umbilical vein endothelial cell (HUVEC) monolayers, containing the L4 larvae. A week prior to conducting an assay, the cultured O. volvulus larvae (L5) were transferred into a Petri dish containing fresh medium. Aliquots of 8–10 worms were retrieved from the Petri dish and placed inside new transwells over newly seeded HUVEC monolayers in the medium described above. After the transfer of O. volvulus L5 to the plates, the test compounds were dissolved in DMSO, added to each well, and incubated at 37 °C in a 5% CO2. The media containing freshly prepared compounds were partially replaced every 2–3 days for 14 days. After 14 days, the media were completely replaced. The untreated control contains the media described above with a final concentration of 0.05% DMSO. The motility was measured every 2–3 days with the following scale: 100% motility, constant coiling movement; 75% motility, slower coiling; 50% motility, slow and intermittent movement; 25% motility, very slow movement or twitching; and 0% motility, no movement. The motility was measured visually by two operators. On day 28, the viability of O. volvulus L5 was measured by MTT. Following washout and incubation during 1 h in PBS under 5% CO2, worms were observed under an inverted microscope. Worms were considered dead if no staining or less than 50% within the worm was observed. Otherwise, if worms stained blue or more than 50% stained, then they are considered alive. All test treatments were performed in duplicates. Significance was determined using a t test.
# CYP3A4 = CYP3A4 (Homo sapiens, UniProt P08684); test: Cytochrome P450 inhibition, 3A4; format: in vitro ADME; conditions: read-out: Cytochrome P450s IC50, 3A4
# Chain of CYP3A4 (P08684 whole entry): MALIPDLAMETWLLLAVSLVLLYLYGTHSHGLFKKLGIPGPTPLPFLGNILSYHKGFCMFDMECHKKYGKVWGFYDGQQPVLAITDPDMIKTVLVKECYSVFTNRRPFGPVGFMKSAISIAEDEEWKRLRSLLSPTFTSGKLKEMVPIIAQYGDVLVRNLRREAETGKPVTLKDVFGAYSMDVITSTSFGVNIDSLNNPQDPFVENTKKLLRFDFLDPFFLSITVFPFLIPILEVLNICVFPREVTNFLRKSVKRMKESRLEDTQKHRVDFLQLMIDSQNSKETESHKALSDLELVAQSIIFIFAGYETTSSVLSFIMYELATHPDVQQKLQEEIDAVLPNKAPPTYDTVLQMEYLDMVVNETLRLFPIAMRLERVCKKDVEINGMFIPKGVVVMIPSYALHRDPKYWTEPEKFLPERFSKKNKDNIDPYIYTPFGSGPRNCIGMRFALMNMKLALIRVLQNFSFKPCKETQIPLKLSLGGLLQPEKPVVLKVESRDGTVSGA
# hERG = target: T1, hERG (Homo sapiens, UniProt Q12809); test: hERG inhibition; format: cell-based; conditions: human
# T1 construct: expressed in transfected cells
# T1 sequence (Q12809 whole entry): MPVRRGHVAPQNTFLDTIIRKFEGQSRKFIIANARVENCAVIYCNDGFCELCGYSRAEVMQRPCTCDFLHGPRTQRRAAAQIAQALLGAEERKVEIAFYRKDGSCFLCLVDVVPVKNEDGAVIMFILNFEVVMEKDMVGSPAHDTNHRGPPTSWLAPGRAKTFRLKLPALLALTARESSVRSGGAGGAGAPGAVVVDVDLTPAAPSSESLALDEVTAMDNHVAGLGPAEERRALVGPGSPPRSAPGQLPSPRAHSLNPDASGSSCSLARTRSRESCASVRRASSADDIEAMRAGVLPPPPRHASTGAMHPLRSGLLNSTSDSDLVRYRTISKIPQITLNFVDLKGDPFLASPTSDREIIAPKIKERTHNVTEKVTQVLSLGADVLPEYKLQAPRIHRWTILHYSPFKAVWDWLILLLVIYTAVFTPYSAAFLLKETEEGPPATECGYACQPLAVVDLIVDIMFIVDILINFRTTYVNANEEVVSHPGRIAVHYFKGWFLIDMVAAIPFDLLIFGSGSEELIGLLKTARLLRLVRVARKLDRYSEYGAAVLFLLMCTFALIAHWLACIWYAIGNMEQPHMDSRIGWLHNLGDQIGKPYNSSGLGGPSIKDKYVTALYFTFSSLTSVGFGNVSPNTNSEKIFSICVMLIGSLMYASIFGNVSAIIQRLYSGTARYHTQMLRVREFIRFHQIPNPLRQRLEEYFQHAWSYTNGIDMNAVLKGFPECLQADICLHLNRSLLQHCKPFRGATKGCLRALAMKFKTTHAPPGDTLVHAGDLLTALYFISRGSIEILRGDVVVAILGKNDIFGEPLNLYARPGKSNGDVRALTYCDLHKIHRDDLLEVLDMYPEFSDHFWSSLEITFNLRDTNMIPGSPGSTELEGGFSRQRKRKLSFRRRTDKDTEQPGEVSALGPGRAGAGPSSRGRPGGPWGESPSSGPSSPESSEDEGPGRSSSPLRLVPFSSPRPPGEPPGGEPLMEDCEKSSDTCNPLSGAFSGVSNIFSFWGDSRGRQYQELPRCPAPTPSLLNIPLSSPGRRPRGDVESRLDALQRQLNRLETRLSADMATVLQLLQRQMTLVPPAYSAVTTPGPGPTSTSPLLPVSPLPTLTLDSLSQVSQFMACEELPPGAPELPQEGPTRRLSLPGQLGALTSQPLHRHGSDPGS
# CYP2C19 = CYP2C19 (Homo sapiens, UniProt P33261); test: Cytochrome P450 inhibition, 2C19; format: in vitro ADME; conditions: read-out: Cytochrome P450s IC50, 2C19
# Chain of CYP2C19 (P33261 whole entry): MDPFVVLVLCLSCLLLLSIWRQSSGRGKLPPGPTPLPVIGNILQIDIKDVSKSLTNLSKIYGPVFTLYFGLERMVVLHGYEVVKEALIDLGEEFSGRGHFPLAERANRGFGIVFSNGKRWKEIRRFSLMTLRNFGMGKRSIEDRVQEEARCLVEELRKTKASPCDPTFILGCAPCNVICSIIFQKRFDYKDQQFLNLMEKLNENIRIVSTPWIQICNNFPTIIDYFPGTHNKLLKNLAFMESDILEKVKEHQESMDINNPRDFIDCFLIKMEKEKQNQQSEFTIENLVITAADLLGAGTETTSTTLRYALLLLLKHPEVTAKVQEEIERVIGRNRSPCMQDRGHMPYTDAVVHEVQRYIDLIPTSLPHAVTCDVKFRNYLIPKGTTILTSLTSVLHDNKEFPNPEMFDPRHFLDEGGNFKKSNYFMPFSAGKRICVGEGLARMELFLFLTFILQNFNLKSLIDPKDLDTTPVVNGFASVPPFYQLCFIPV
# CYP2C8 = target: T2, CYP2C8 (Homo sapiens, UniProt P10632); test: Cytochrome P450 inhibition, 2C8; format: in vitro ADME; conditions: read-out: Cytochrome P450s IC50, 2C8
# T2 sequence (P10632 1-490): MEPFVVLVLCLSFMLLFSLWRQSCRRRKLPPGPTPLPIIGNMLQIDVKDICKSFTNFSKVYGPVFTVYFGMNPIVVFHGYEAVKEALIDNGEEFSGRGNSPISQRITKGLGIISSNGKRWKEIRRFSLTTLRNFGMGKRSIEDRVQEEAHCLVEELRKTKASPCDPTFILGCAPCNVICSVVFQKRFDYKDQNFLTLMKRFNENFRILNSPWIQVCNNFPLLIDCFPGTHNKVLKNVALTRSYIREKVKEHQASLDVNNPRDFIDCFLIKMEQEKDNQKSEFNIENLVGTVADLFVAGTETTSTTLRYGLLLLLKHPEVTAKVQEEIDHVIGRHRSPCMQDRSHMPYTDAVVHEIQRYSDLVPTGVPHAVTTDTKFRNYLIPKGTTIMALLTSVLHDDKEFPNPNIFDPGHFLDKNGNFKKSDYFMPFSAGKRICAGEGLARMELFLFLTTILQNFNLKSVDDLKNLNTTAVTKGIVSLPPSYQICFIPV
# CYP2C9 = CYP2C9 (Homo sapiens, UniProt P11712); test: Cytochrome P450 inhibition, 2C9; format: in vitro ADME; conditions: read-out: Cytochrome P450s IC50, 2C9
# Chain of CYP2C9 (P11712 whole entry): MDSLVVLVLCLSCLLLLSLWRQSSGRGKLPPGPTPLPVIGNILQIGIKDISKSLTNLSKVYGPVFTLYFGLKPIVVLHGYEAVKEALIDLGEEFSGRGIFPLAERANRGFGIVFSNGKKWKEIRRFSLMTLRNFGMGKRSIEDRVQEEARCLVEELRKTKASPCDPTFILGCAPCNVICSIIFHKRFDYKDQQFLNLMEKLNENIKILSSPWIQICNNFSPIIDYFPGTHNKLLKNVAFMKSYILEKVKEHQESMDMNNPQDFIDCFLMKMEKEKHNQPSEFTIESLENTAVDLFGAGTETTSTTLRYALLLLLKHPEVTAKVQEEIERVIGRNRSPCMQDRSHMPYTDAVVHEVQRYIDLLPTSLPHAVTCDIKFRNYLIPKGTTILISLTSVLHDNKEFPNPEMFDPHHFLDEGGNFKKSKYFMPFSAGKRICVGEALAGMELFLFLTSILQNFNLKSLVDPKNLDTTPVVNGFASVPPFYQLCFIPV
# CYP2D6 = CYP2D6 (Homo sapiens, UniProt P10635); test: Cytochrome P450 inhibition, 2D6; format: in vitro ADME; conditions: read-out: Cytochrome P450s IC50, 2D6
# Chain of CYP2D6 (P10635 whole entry): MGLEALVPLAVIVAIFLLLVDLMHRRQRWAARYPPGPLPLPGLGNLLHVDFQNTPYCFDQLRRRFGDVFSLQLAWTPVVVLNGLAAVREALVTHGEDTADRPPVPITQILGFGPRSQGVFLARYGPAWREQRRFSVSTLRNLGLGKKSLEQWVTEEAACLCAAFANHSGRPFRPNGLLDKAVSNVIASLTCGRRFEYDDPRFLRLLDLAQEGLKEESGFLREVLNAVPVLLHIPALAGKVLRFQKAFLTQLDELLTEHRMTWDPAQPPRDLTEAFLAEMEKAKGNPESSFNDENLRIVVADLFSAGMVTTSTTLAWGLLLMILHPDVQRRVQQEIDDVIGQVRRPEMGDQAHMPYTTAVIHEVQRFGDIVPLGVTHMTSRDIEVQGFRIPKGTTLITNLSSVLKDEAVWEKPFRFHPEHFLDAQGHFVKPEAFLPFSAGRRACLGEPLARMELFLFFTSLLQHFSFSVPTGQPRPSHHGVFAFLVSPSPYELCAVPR
# [4] = male CD-1 mouse, PO 30 mg/kg suspension
# [5] = female BALB/c mouse, PO 30 mg/kg
# [6] = male CD-1 mouse, PO 10 mg/kg suspension
# [7] = plasma, male CD-1 mouse, PO 10 mg/kg suspension, read-out: Tmax
smiles,measurement,setting,value
"Cc1cccnc1Nc1nc(-c2ccc(OC(C)C)cn2)ns1 [Compound 10, 3-(5-Isopropoxypyridin-2-yl)-N-(3-methylpyridin-2-yl)-1,2,4-thiadiazol-5-amine]",AUC(0-inf),Mouse pharmacokinetics; [4],26.0 ± 9.0 µM·h
same,Cmax,Mouse pharmacokinetics; [4],8260 ± 2600 nM
same,Tmax,Mouse pharmacokinetics; [4],1.0 ± 0.6 h
same,tolerability in mice,[1]; reason for lowering the dose from 30 to 10 mg/kg,tolerability issues
"Cc1cccnc1Nc1nc(-c2ccc(OC3CC3)cn2)ns1 [Compound 11, 3-(5-Cyclopropoxypyridin-2-yl)-N-(3-methylpyridin-2-yl)-1,2,4-thiadiazol-5-amine]",O. volvulus L5 % inhibition of viability,O. volvulus L5 larvae [2],100%
same,inhibition at 1 µM,O. volvulus L5 larvae [3],100%
"Cc1cccnc1Nc1nc(-c2ccc(OC3CCN(C4CC4)CC3)cn2)ns1 [Compound 19, 3-[5-[(1-Cyclopropyl-4-piperidyl)oxy]-2-pyridyl]-N-(3-methyl-2-pyridyl)-1,2,4-thiadiazol-5-amine]",AUC(0-inf),Mouse pharmacokinetics; [4],6.23 ± 6.16 µM·h
same,Cmax,Mouse pharmacokinetics; [4],2080 ± 1220 nM
same,Tmax,Mouse pharmacokinetics; [4],0.5 ± 0.0 h
"CC(C)Oc1ccc(-c2nsc(Nc3ncccc3C(C)C)n2)nc1 [Compound 25, 3-(5-Isopropoxy-2-pyridyl)-N-(3-isopropyl-2-pyridyl)-1,2,4-thiadiazol-5-amine]",AUC(0-inf),Mouse pharmacokinetics; [4],20.0 ± 9.9 µM·h
same,Cmax,Mouse pharmacokinetics; [4],2050 ± 270 nM
same,Tmax,Mouse pharmacokinetics; [4],2.4 ± 3.8 h
CC(C)c1ccnc(-c2nsc(Nc3ncccc3C(F)(F)F)n2)c1 [Compound 27],inhibition at 1 µM,O. volvulus L5 larvae [3],100%
"CC(C)Oc1ccc(-c2nsc(Nc3ncccc3N(C)C)n2)nc1 [Compound 31, N^2-(3-(5-Isopropoxypyridin-2-yl)-1,2,4-thiadiazol-5-yl)-N3,N3-dimethylpyridine-2,3-diamine]",Kp at 2 h,"Mouse pharmacokinetics; brain and plasma, female BALB/c mouse, PO 30 mg/kg, 2 h, read-out: brain/plasma [b]/[p]",1.1
same,AUC(0-inf),Mouse pharmacokinetics; [5],4.66 ± 0.54 µM·h
same,Cmax,Mouse pharmacokinetics; [5],5180 nM
same,Tmax,Mouse pharmacokinetics; [5],0.5 h
same,Vd,Mouse pharmacokinetics; male CD-1 mouse,3.01 L/kg
same,Cl,Mouse pharmacokinetics; male CD-1 mouse,62.9 mL/min/kg
same,AUC(0-inf),Mouse pharmacokinetics; [6],0.94 ^h μM·h
same,Cmax,Mouse pharmacokinetics; [6],650 nM
same,Tmax,Mouse pharmacokinetics; [7],0.5 h
same,bioavailability,"Mouse pharmacokinetics; plasma, male CD-1 mouse",13%
same,IC50,CYP3A4,22 µM
same,O. volvulus L5 % inhibition of viability,O. volvulus L5 larvae [2],100%
same,IC50,hERG,11.4 µM
same,IC50,CYP2C19,20 µM
same,IC50,CYP2C8,7.1 µM
same,IC50,CYP2C9,5.5 µM
same,inhibition at 1 µM,O. volvulus L5 larvae [3],100%
same,IC50,CYP2D6,> 30 µM
same,adult worm burden reduction,"[1]; mice infected SC with 40 L3 larvae, 30 mg/kg BID 7d oral",-97.1%
same,reduction of adult worm burden,[1]; 6 days of dosing,97%
CN(C)c1cccnc1Nc1nc(-c2ccc(OC3CC3)cn2)ns1 [Compound 32],AUC(0-inf),Mouse pharmacokinetics; [4],3.85 ± 0.76 µM·h
same,Cmax,Mouse pharmacokinetics; [4],2340 ± 520 nM
same,Tmax,Mouse pharmacokinetics; [4],0.5 ± 0.00 h
same,O. volvulus L5 % inhibition of viability,O. volvulus L5 larvae [2],83%
same,inhibition at 1 µM,O. volvulus L5 larvae [3],100%
same,reduction of adult worm burden,[1]; 7 days of dosing,70%
same,adult worm burden reduction,"[1]; naturally infected mice, 30 mg/kg BID 6d oral",-69.9%
"CC(C)c1ccnc(-c2nsc(Nc3cc(C(F)(F)F)ccn3)n2)c1 [Compound 35, 3-(4-Isopropylpyridin-2-yl)-N-(4-(trifluoromethyl)pyridin-2-yl)-1,2,4-thiadiazol-5-amine]",Cmax,Mouse pharmacokinetics; [4],210 ± 20 nM
same,Tmax,Mouse pharmacokinetics; [4],1.8 ± 1.7 h
same,AUC(0-inf),"Mouse pharmacokinetics; male CD-1 mouse, PO 30 mg/kg suspension, 30 mg/kg",1.7 µM·h and 1.73 ± 0.59 µM·h
"CC(=O)N(C)c1cccnc1Nc1nc(-c2ccc(OC(C)C)cn2)ns1 [Compound 47, N-(2-((3-(5-Isopropoxypyridin-2-yl)-1,2,4-thiadiazol-5-yl)amino)pyridin-3-yl)-N-methylacetamide]",Kp,"Mouse pharmacokinetics; brain and plasma, male CD-1 mouse, PO 30 mg/kg, based on AUC0-t, read-out: brain/plasma [b]/[p]",0.08
same,Vd,Mouse pharmacokinetics; male CD-1 mouse,0.74 ± 0.08 L/kg
same,Cl,Mouse pharmacokinetics; male CD-1 mouse,3.6 ± 0.22 mL/min/kg
same,AUC(0-inf),Mouse pharmacokinetics; [6],68.1NC ^j μM·h
same,Cmax,Mouse pharmacokinetics; [6],5270 ± 830 nM
same,AUC(0-inf),Mouse pharmacokinetics; [4],121 ^h μM·h
same,Cmax,Mouse pharmacokinetics; [4],13900 nM
same,Tmax,Mouse pharmacokinetics; [4],0.50 ^h
same,Tmax,Mouse pharmacokinetics; [7],4 ± 2.8 h
same,bioavailability,"Mouse pharmacokinetics; plasma, male CD-1 mouse",57%
same,IC50,CYP3A4,> 30 µM
same,O. volvulus L5 % inhibition of viability,O. volvulus L5 larvae [2],100%
same,IC50,hERG,> 30 µM
same,IC50,CYP2C19,29 µM
same,IC50,CYP2C8,> 30 µM
same,IC50,CYP2C9,5.7 µM
same,inhibition at 1 µM,"O. volvulus L5 larvae [3]; Day 21, 1 uM",100%
same,IC50,CYP2D6,30 µM
"CC(C)Oc1ccc(-c2nsc(Nc3ncccc3N(C)C(=O)C3CC3)n2)nc1 [Compound 50, N-(2-((3-(5-Isopropoxypyridin-2-yl)-1,2,4-thiadiazol-5-yl)amino)pyridin-3-yl)-N-methylcyclopropanecarboxamide]",Kp,"Mouse pharmacokinetics; male, CD-1, mouse, brain and plasma, brain to plasma ratio, dose not given, read-out: [b]/[p]",0.11
same,O. volvulus L5 % inhibition of viability,O. volvulus L5 larvae [2],100%
same,inhibition at 1 µM,"O. volvulus L5 larvae [3]; Day 21, 1 uM",100%
